Data published in patent US6472384B1, “Antimicrobial compounds” (Sankyo Company, Limited, priority 1998, dated 2002).
In brackets after ≈: the same amount, converted by molar mass. One block for each compound: values may come before it.

Experiments:
[1] = test system: Mycobacterium smegmatis SANK 75075; experiment: Disk assay against Mycobacterium smegmatis; assay type: cell-based; details: Mycolicibacterium smegmatis, SANK75075, 40 μg of test substance per paper disk of 8 mm, read-out: inhibitory zone (circle) diameter
Source text: Compound A-500359E, Compound A-500359F, the amide derivative of Compound A-500359F, Compound A-500359H, Compound A-500359J and Compound A-500359M-3 of the present invention thus available are novel compounds which have not been described in the literature. Their growth inhibitory activity against general gram positive bacteria or gram negative bacteria can be determined by the disk assay method using normal agar medium (product of Eiken Chemical) or heart infusion agar medium (product of Difco Laboratories). Growth inhibitory activity against Mycobacteria, gram positive bacteria belonging to the Actinonycetales, can be determined similarly on the above-described medium added further with glycerin.
So-called disk assay was conducted using 40 μg of a test substance per paper disk of 8 mm.
So-called Disk assay (“Experimental Agricultural Chemistry”. ed. by Agricultural Chemistry Class/Agriculture Dept./Tokyo Univ., 3rd edition, Volume II, published by Asakura Shoten in 1978) was conducted using 40 μg of a test substance per paper disk of 8 mm.

[2] = Solubility (physico-chemical properties); assay type: physicochemical
[3] = test system: Mycobacterium smegmatis Strain SANK 75075; experiment: Minimum inhibitory concentration against Mycobacterium smegmatis (agar plate dilution); assay type: cell-based; details: Mycolicibacterium smegmatis; Mycobacterium smegmatis SANK 75075; nutrient agar containing 5% glycerol; 37° C. for 18 hours
Experimental: The minimum inhibitory concentration of preferred compounds of the invention against Mycobacterium smegmatis Strain SANK 75075 was determined in accordance with the process described below. The concentration of the compound to be tested was set at four stages by four-fold dilution starting from 1000 μg/ml (1000 μg/ml, 250 μg/ml, 62 μg/ml and 15 μg/ml). A 1 ml portion of the diluted sample of each stage was poured into a Petri dish (“Terumo Petri dish”, 90×20 mm). A nutrient agar medium (9 ml, product of Eiken Chemical) containing 5% glycerol was added and they were mixed to prepare a plate medium. A test microorganism Mycobacterium smegmatis SANK 75075 was precultured overnight at 37° C. on a trypto-soy broth (T.S.B) medium (product of Eiken Chemical) containing 5% glycerol. On the testing day, the microorganism solution was diluted 100-fold with T.S.B. and one loopful of the diluted culture was streaked onto the plate medium. After cultivation at 37° C. for 18 hours, the minimum concentration (MIC) of the test substance inhibiting the growth of the microorganism was determined.

[4] = test system: Mycobacterium avium Strain NIHJ1605; experiment: Minimum inhibitory concentration against Mycobacterium avium (broth dilution); assay type: cell-based; details: NIHJ1605, 144 h; Mycobacterium avium NIHJ 1605; Middleblook 7H9 broth; aerobic culture at 37° C. for 6 days

SMILES: CCCCCCCCC(=O)O[C@@H]1[C@H](OC)[C@@H]([C@@H](O[C@H]2OC(C(=O)N[C@H]3CCC[C@@H](C)NC3=O)=C[C@H](O)[C@@H]2O)C(N)=O)O[C@H]1n1ccc(=O)[nH]c1=O [Exemp. Compound No. 6]
- MIC [3]: 3.1 µg/mL (≈ 4.28 µM)

SMILES: CCCCCCCCCC(=O)O[C@@H]1[C@H](OC)[C@@H]([C@@H](O[C@H]2OC(C(=O)N[C@H]3CCC[C@@H](C)NC3=O)=C[C@H](O)[C@@H]2O)C(N)=O)O[C@H]1n1ccc(=O)[nH]c1=O [Exemp. Compound No. 7]
- MIC [3]: 6.2 µg/mL (≈ 8.4 µM)

SMILES: CCCCCCCCCCCCCCCC(=O)O[C@@H]1[C@H](OC)[C@@H]([C@@H](O[C@H]2OC(C(=O)N[C@H]3CCC[C@@H](C)NC3=O)=C[C@H](O)[C@@H]2O)C(N)=O)O[C@H]1n1ccc(=O)[nH]c1=O [Exemp. Compound No. 11]
- MIC [3]: 6.2 µg/mL (≈ 7.54 µM)

SMILES: CO[C@H]1[C@@H](OC(=O)CC(c2ccccc2)c2ccccc2)[C@H](n2ccc(=O)[nH]c2=O)O[C@@H]1[C@@H](O[C@H]1OC(C(=O)N[C@H]2CCC[C@@H](C)NC2=O)=C[C@H](O)[C@@H]1O)C(N)=O [Exemp. Compound No. 21]
- MIC [3]: 6.2 µg/mL (≈ 7.83 µM)

SMILES: CCCCCCCCCCCCCCCC(=O)O[C@@H]1[C@H](OC)[C@@H]([C@@H](O[C@H]2OC(C(=O)N[C@H]3CCCCNC3=O)=C[C@H](O)[C@@H]2O)C(N)=O)O[C@H]1n1ccc(=O)[nH]c1=O [Exemp. Compound No. 53]
- MIC [3]: 6.2 µg/mL (≈ 7.67 µM)

SMILES: CCCCCCCCCCCCCCCC(=O)O[C@H]1C=C(C(=O)N[C@H]2CCCCNC2=O)O[C@H](O[C@@H](C(N)=O)[C@H]2O[C@@H](n3ccc(=O)[nH]c3=O)[C@H](O)[C@@H]2OC)[C@H]1O [Exemp. Compound No. 135]
- MIC [3]: 1.5 µg/mL (≈ 1.86 µM)

SMILES: CCCCCCC(=O)O[C@@H]1[C@@H](O[C@@H](C(N)=O)[C@H]2O[C@@H](n3ccc(=O)[nH]c3=O)[C@H](O)[C@@H]2OC)OC(C(=O)N[C@H]2CCCCNC2=O)=C[C@@H]1OC(=O)CCCCCC [Exemp. Compound No. 280]
- MIC [3]: 3.1 µg/mL (≈ 3.9 µM)

Second part, led by results:

- Solubility in chloroform [2]: insoluble
- Solubility in methanol [2]: slightly soluble
- Solubility in normal hexane [2]: insoluble
- Solubility in water [2]: soluble
SMILES: COC(=O)C1=CC(O)C(O)C(OC(C(N)=O)C2OC(n3ccc(=O)[nH]c3=O)C(O)C2OC)O1 (stereo not drawn) [A-500359E]
- zone of inhibition at 40 µg/disc [1]: 12 mm

- Solubility in chloroform [2]: insoluble
- Solubility in methanol [2]: slightly soluble
- Solubility in normal hexane [2]: insoluble
- Solubility in water [2]: soluble
SMILES: COC1C(O)C(n2ccc(=O)[nH]c2=O)OC1C(OC1OC(C(=O)O)=CC(O)C1O)C(N)=O (stereo not drawn) [A-500359F]

- Solubility in chloroform [2]: insoluble
- Solubility in methanol [2]: slightly soluble
- Solubility in normal hexane [2]: insoluble
- Solubility in water [2]: soluble
SMILES: NC(=O)C(OC1OC(C(=O)O)=CC(O)C1O)C1OC(n2ccc(=O)[nH]c2=O)C(O)C1O (stereo not drawn) [A-500359H]

- Solubility in chloroform [2]: insoluble
- Solubility in methanol [2]: slightly soluble
- Solubility in normal hexane [2]: insoluble
- Solubility in water [2]: soluble
SMILES: NC(=O)C(OC1OC(C(=O)O)C(O)C(O)C1O)C1OC(n2ccc(=O)[nH]c2=O)C(O)C1O (stereo not drawn) [A-500359J]

- Solubility in chloroform [2]: insoluble
- Solubility in methanol [2]: soluble
- Solubility in normal hexane [2]: insoluble
- Solubility in water [2]: soluble
SMILES: C=CCC(NC(=O)C1=CC(O)C(O)C(OC(C(N)=O)C2OC(n3ccc(=O)[nH]c3=O)C(O)C2OC)O1)C(=O)O (stereo not drawn) [A-500359M-3]
- zone of inhibition at 40 µg/disc [1]: 12 mm

- MIC [3]: 12.5 µg/mL (≈ 21.9 µM)
- MIC [4]: 8 µg/mL (≈ 14 µM)
SMILES: CO[C@H]1[C@@H](O)[C@H](n2ccc(=O)[nH]c2=O)O[C@@H]1[C@@H](O[C@H]1OC(C(=O)N[C@H]2CCCCNC2=O)=C[C@H](O)[C@@H]1O)C(N)=O [Capuramycin, capuramycin, reference compound]

- Solubility in chloroform [2]: insoluble
- Solubility in methanol [2]: slightly soluble
- Solubility in normal hexane [2]: insoluble
- Solubility in water [2]: soluble
SMILES: COC1C(O)C(n2ccc(=O)[nH]c2=O)OC1C(OC1OC(C(N)=O)=CC(O)C1O)C(N)=O (stereo not drawn) [amide derivative of compound A-500359F]
- zone of inhibition at 40 µg/disc [1]: 12 mm
